The source made the active and inactive calls. How the calls were made is not given here.
Tested on: CCRIS mutagenicity, Ames/micronucleus/aberration tests
Assay: CCRIS mutagenicity studies
[1] = Test System: AMES SALMONELLA TYPHIMURIUM, Strain/Indicator: TA98, Metabolic Activation: NONE, Method: PREINCUBATION
[2] = Test System: AMES SALMONELLA TYPHIMURIUM, Strain/Indicator: TA100, Metabolic Activation: NONE, Method: PREINCUBATION
[3] = Test System: AMES SALMONELLA TYPHIMURIUM, Strain/Indicator: TA1535, Metabolic Activation: NONE, Method: PREINCUBATION
[4] = Test System: AMES SALMONELLA TYPHIMURIUM, Strain/Indicator: TA1537, Metabolic Activation: NONE, Method: PREINCUBATION

Measured: mutagenic call

CCCCC(CC)CO (stereo not given)
inactive: Test System: AMES SALMONELLA TYPHIMURIUM, Strain/Indicator: TA98, Metabolic Activation: HAMSTER, LIVER, S-9, AROCLOR 1254 (10%), Method: PREINCUBATION inactive; negative | [1] inactive; negative | Test System: AMES SALMONELLA TYPHIMURIUM, Strain/Indicator: TA98, Metabolic Activation: RAT LIVER S-9, PHENOBARBITAL AND BETA-NAPHTHOFLAVONE, Method: PREINCUBATION inactive; negative | Test System: AMES SALMONELLA TYPHIMURIUM, Strain/Indicator: TA98, Metabolic Activation: RAT, LIVER, S-9, AROCLOR 1254 (10%), Method: PREINCUBATION inactive; negative | Test System: AMES SALMONELLA TYPHIMURIUM, Strain/Indicator: TA98, Metabolic Activation: RAT, LIVER, S-9, KC 500, Method: PREINCUBATION inactive; negative | Test System: AMES SALMONELLA TYPHIMURIUM, Strain/Indicator: TA100, Metabolic Activation: HAMSTER, LIVER, S-9, AROCLOR 1254 (10%), Method: PREINCUBATION inactive; negative | [2] inactive; negative | Test System: AMES SALMONELLA TYPHIMURIUM, Strain/Indicator: TA100, Metabolic Activation: RAT LIVER S-9, PHENOBARBITAL AND BETA-NAPHTHOFLAVONE, Method: PREINCUBATION inactive; negative | Test System: AMES SALMONELLA TYPHIMURIUM, Strain/Indicator: TA100, Metabolic Activation: RAT, LIVER, S-9, AROCLOR 1254 (10%), Method: PREINCUBATION inactive; negative | Test System: AMES SALMONELLA TYPHIMURIUM, Strain/Indicator: TA100, Metabolic Activation: RAT, LIVER, S-9, KC 500, Method: PREINCUBATION inactive; negative | Test System: AMES SALMONELLA TYPHIMURIUM, Strain/Indicator: TA1535, Metabolic Activation: HAMSTER, LIVER, S-9, AROCLOR 1254 (10%), Method: PREINCUBATION inactive; negative | [3] inactive; negative | Test System: AMES SALMONELLA TYPHIMURIUM, Strain/Indicator: TA1535, Metabolic Activation: RAT LIVER S-9, PHENOBARBITAL AND BETA-NAPHTHOFLAVONE, Method: PREINCUBATION inactive; negative | Test System: AMES SALMONELLA TYPHIMURIUM, Strain/Indicator: TA1535, Metabolic Activation: RAT, LIVER, S-9, AROCLOR 1254 (10%), Method: PREINCUBATION inactive; negative | Test System: AMES SALMONELLA TYPHIMURIUM, Strain/Indicator: TA1535, Metabolic Activation: RAT, LIVER, S-9, KC 500, Method: PREINCUBATION inactive; negative | Test System: AMES SALMONELLA TYPHIMURIUM, Strain/Indicator: TA1537, Metabolic Activation: HAMSTER, LIVER, S-9, AROCLOR 1254 (10%), Method: PREINCUBATION inactive; negative | [4] inactive; negative | Test System: AMES SALMONELLA TYPHIMURIUM, Strain/Indicator: TA1537, Metabolic Activation: RAT LIVER S-9, PHENOBARBITAL AND BETA-NAPHTHOFLAVONE, Method: PREINCUBATION inactive; negative | Test System: AMES SALMONELLA TYPHIMURIUM, Strain/Indicator: TA1537, Metabolic Activation: RAT, LIVER, S-9, AROCLOR 1254 (10%), Method: PREINCUBATION inactive; negative | Test System: AMES SALMONELLA TYPHIMURIUM, Strain/Indicator: TA1537, Metabolic Activation: RAT, LIVER, S-9, KC 500, Method: PREINCUBATION inactive; negative | Test System: AMES SALMONELLA TYPHIMURIUM, Strain/Indicator: TA1538, Metabolic Activation: NONE, Method: PREINCUBATION inactive; negative | Test System: AMES SALMONELLA TYPHIMURIUM, Strain/Indicator: TA1538, Metabolic Activation: RAT, LIVER, S-9, KC 500, Method: PREINCUBATION inactive; negative | Test System: E. COLI, Strain/Indicator: WP2 UVRA, Metabolic Activation: NONE, Method: PREINCUBATION inactive; negative | Test System: E. COLI, Strain/Indicator: WP2UVRA, Metabolic Activation: NONE, Method: PREINCUBATION inactive; negative | Test System: E. COLI, Strain/Indicator: WP2UVRA, Metabolic Activation: RAT LIVER S-9, PHENOBARBITAL AND BETA-NAPHTHOFLAVONE, Method: PREINCUBATION inactive; negative | Test System: E. COLI, Strain/Indicator: WP2 UVRA, Metabolic Activation: RAT, LIVER, S-9, KC 500, Method: PREINCUBATION inactive; negative

CC1(C)C(=O)N(Cl)C(=O)N1Cl
inactive: End Point: IN VITRO CHROMOSOMAL ABERRATIONS, Test System: CHINESE HAMSTER OVARY CELLS, Metabolic Activation: NONE inactive; negative | End Point: IN VITRO CHROMOSOMAL ABERRATIONS, Test System: CHINESE HAMSTER OVARY CELLS, Metabolic Activation: RAT, LIVER, S-9, AROCLOR 1254 inactive; negative | Test System: AMES SALMONELLA TYPHIMURIUM, Strain/Indicator: TA98, Metabolic Activation: HAMSTER, LIVER, S-9, AROCLOR 1254, Method: PREINCUBATION inactive; negative | [1] inactive; negative | Test System: AMES SALMONELLA TYPHIMURIUM, Strain/Indicator: TA98, Metabolic Activation: RAT, LIVER, S-9, AROCLOR 1254, Method: PREINCUBATION inactive; negative | Test System: AMES SALMONELLA TYPHIMURIUM, Strain/Indicator: TA100, Metabolic Activation: HAMSTER, LIVER, S-9, AROCLOR 1254, Method: PREINCUBATION inactive; negative | [2] inactive; negative | Test System: AMES SALMONELLA TYPHIMURIUM, Strain/Indicator: TA100, Metabolic Activation: RAT, LIVER, S-9, AROCLOR 1254, Method: PREINCUBATION inactive; negative | Test System: AMES SALMONELLA TYPHIMURIUM, Strain/Indicator: TA1535, Metabolic Activation: HAMSTER, LIVER, S-9, AROCLOR 1254, Method: PREINCUBATION inactive; negative | [3] inactive; negative | Test System: AMES SALMONELLA TYPHIMURIUM, Strain/Indicator: TA1535, Metabolic Activation: RAT, LIVER, S-9, AROCLOR 1254, Method: PREINCUBATION inactive; negative | Test System: AMES SALMONELLA TYPHIMURIUM, Strain/Indicator: TA1537, Metabolic Activation: HAMSTER, LIVER, S-9, AROCLOR 1254, Method: PREINCUBATION inactive; negative | [4] inactive; negative | Test System: AMES SALMONELLA TYPHIMURIUM, Strain/Indicator: TA1537, Metabolic Activation: RAT, LIVER, S-9, AROCLOR 1254, Method: PREINCUBATION inactive; negative

— PubChem BioAssay AID1259407 (Chemical Carcinogenesis Research Information System (CCRIS), 2018)
